Results as given in article PMC4789278, “Pharmacological inhibition of LSD1 for the treatment of MLL-rearranged leukemia” (Journal of Hematology & Oncology, 2016).
Read-outs that look alike come from different tables or passages of the source.

How the values were obtained:
[1] = system: human primary leukemia cells from an AML patient with MLL-ENL fusion oncogene; assay: Colony-forming assay; type: cell-based; conditions: 336 h, colonies counted after 14 days, read-out: colony-forming ability EC50
Method: Colony-forming assay using non-serum culture media represents a useful method to assess self-renewal capacity of stem-like cancer cells. The number of cell colonies formed in the assay reflects the proportion of stem-like cells in a given number of cancer cells. […] Human MLL-rearranged AML samples will be obtained from the Children’s Oncology Group (COG) Biopathology Center, in accordance with the IRB-approved protocol H-24170. The colony-forming assay was performed according to our previously published method. After 14 days, the colony number of each culture dish was counted and imported into Prism 5.0 and EC50 values were determined by using the sigmoidal dose response curve fitting in the software.

[2] = system: HoxA9 and Meis1 expression in MV4-11 cells; assay: Quantitative real-time PCR of HoxA9 and Meis1; type: cell-based, human
Method: Next, we examined whether LSD1 inhibition can block the expression of HoxA9 and Meis1, whose overexpression has been observed in MLL-rearranged leukemia.
For 3 days, 10^4 cells/well were incubated with a compound, and the RNA was extracted from cells using RNeasy mini kit (QIAGEN); 100–1000 ng of total RNA was reverse transcribed using iScript™ Reverse Transcription Supermix (Bio-Rad) using the manufacturer’s protocol. Quantitative real-time PCR was carried out using Fast SYBR Green Master Mix (Applied Biosystems) according to the manufacturer’s instructions. Measurements were performed in triplicate, using GAPDH as the reference gene. Real-time PCR was performed using Biosystems Step One Plus detection system. The following sequences of primers are used: […]

[3] = system: gene expression in MV4-11 cells; assay: Microarray / GSEA; type: cell-based, human; conditions: 7 days
Method: To this end, triplicate samples of MV4-11 cells were treated with compounds 1 and 2 and the RNA of these samples was isolated, amplified, and hybridized to Illumina HT-12 microarrays. The microarray data were log2-transformed and normalized to have the same median values for comparative analysis. Moderate t test was applied to search for genes that were differentially expressed between the control and compound treated samples, using the filter thresholds of p values <0.05 and fold changes >4. […] Next, we used gene set enrichment analysis (GSEA) in an effort to find the possible mechanism(s) for the LSD1 inhibition-mediated antileukemia activity.
For 7 days, 10^5 cells/well were incubated with compounds. Cells were treated with Trizol® Reagent, frozen in liquid nitrogen, and shipped to Asuragen, Inc. (Austin, TX) for microarray experiments. RNA from these samples was isolated, amplified, and hybridized to Illumina Human HT-12 v4 arrays according to the manufacturer’s protocol. Microarray data were log2 transformed and normalized to have the same median for all the arrays. Moderate t statistics were used to find genes that were differentially expressed between the samples of interest. Benjamini and Hochberg method was used to correct for multiple comparisons. […]

[4] = system: H3K4me2 in MV4-11 cells; assay: Western blot of histone H3K4 methylation; type: cell-based, human; conditions: 3 days
Method: Compounds 1 and 2 were selected for further biological activity testing. MV4-11 cells were treated with these two compounds for 3 days. […] Other researchers observed the similar results using a different LSD1 inhibitor.
With increasing concentrations of a compound for […], 10^6 cells/well were incubated and histones extracted with the EpiQuik™ Total Histone Extraction Kit (Epigentek) according to the manufacturer’s protocol. Equal amounts of histones (2 μg) were separated on SDS-PAGE and transferred to PVDF membranes. The blots were probed with H3K4-Me2 and H3 primary antibodies (Cell Signaling), followed by antirabbit IgG (Thermo Scientific) secondary antibodies.

[5] = system: MV4-11 cells; assay: FACS of differentiation markers CD14 / CD11b; type: cell-based, human; conditions: for cell populations expressing high levels of CD14: treatment for 12 days
Method: Importantly, only these stem-like cancer cells can form new tumors when transplanted into a new host, while the other non-stem cancer cells fail to do so. These stem-like cancer cells are more drug resistant and believed to be responsible for tumor metastasis and relapse. […] CD14 and CD11b are two cell surface proteins characteristic to differentiated macrophages/monocytes. […] Similarly, incubation with 2 led to considerably more CD11b^+ cells (Fig. 3b).
For Annexin V apoptosis assay, 10^5 cells/well were incubated with increasing concentrations of a compound for 7 or 14 days. Apoptosis was determined using the FITC Annexin V Apoptosis Detection Kit I (BD Bioscience) using the manufacturer’s protocol. For other FACS assays, cells were labeled with fluorochrome-conjugated monoclonal antibodies against human CD14, CD11b, CD45, or CD33 (BD Biosciences) according to the manufacturer’s recommendation. Cells were analyzed using a FACS Calibur (BD Biosciences/Applied Biosystems), and data were processed using the program Flowjo (version7.6.5).

[6] = biological target: T1, human MAO-A (Homo sapiens, UniProt P21397); assay: MAO-A inhibition (MAO-Glo); type: biochemical
T1 construct: purchased Sigma
T1 sequence (P21397 1-527): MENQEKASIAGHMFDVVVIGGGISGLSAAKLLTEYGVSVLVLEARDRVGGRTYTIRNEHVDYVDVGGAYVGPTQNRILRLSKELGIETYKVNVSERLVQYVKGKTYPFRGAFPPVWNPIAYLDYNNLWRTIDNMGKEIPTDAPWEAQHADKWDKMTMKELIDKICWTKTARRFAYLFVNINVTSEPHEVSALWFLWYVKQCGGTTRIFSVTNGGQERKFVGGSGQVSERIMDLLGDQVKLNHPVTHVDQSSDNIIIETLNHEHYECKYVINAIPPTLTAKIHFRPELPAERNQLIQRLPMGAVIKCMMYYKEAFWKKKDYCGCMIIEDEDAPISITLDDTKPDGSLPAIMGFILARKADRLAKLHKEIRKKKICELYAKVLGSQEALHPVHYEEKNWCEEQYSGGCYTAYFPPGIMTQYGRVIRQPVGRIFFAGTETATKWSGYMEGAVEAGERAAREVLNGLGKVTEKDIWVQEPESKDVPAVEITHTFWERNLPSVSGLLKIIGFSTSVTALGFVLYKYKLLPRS
Method: The cyclopropylamine LSD1 inhibitors were generally derived from MAO-A/-B inhibitor tranylcypromine, an antidepression drug. Because MAO-A and -B play important roles in the degradation of neurotransmitters (e.g., serotonin and dopamine) in the central nervous system, selective inhibition for LSD1 is highly desirable.
Recombinant human MAO-A and -B were purchased from Sigma. The inhibitory activity was determined using MAO-Glo assay kit (Promega). In brief, following the manufacturer’s protocol, assays were performed in 384-well white plates (Corning) using MAO-A or -B (100 nM) with a final volume of 20 μL. Reactions were quenched after 60 min by adding reconstituted luciferin detection reagent (20 μL/well); 20 min after addition of the detection reagent, the luminescence of each well was measured using Beckman DTX-880 microplate reader. IC50 calculation was similar to that of LSD1.

[7] = range covers MAO-A and MAO-B, read-out: IC50 against MAO-A and -B (range over both enzymes)

SMILES | EC50 [1] [µM] | expression of HoxA9 and Meis1 [2] | expression of hematopoietic differentiation and pro-apoptotic gene sets (GSEA) [3] | cellular levels of H3K4me2 [4] | CD11b+ cells ([5]; 1 μM) [%] | cell populations expressing high levels of CD14 [5] [%] | IC50 [6, 7] [µM] | IC50 ([6]; read-out: MAO-A IC50) [µM]
CN1CCN(C(=O)CNC2CC2c2ccc(-c3ccc(F)nc3)cc2)CC1 (stereo not drawn) [Compound 2] | 0.52 | significantly decrease the expression of both HoxA9 and Meis1 in a dose-dependent manner | significant upregulation | increase cellular levels of H3K4me2 in a dose-dependent manner | 19.5 | > 90 | 17.5 to 480 | 120
CN1CCN(C(=O)CNC2CC2c2ccc(OCc3ccccc3)cc2)CC1 (stereo not drawn) [Compound 1] | 0.43 | significantly decrease the expression of both HoxA9 and Meis1 in a dose-dependent manner | significant upregulation | increase cellular levels of H3K4me2 in a dose-dependent manner | – | > 90 | 17.5 to 480 | 17.5
